Reference: EPA's ToxValDB 9.5

Tested on: Rattus norvegicus
Conditions: short-term, duration: 28 days, oral, gavage, Sprague-Dawley

Compound: O=C(O)C(F)(F)C(F)(F)C(F)(F)C(F)(F)C(F)(F)C(F)(F)C(F)(F)C(F)(F)C(F)(F)F [Perfluorodecanoic acid]
- LOEL (F, Clinical chemistry_Alanine aminotransferase): 1.25 mg/kg-day
- NOEL (F, Clinical chemistry_Albumin): 2.5 mg/kg-day
- LOEL (F, Clinical chemistry_Albumin/globulin ratio): 0.312 mg/kg-day
- LOEL (F, Clinical chemistry_Alkaline phosphatase): 0.312 mg/kg-day
- LOEL (F, Clinical chemistry_Aspartate aminotransferase): 1.25 mg/kg-day
- LOEL (F, Clinical chemistry_Cholesterol): 2.5 mg/kg-day
- LOEL (F, Clinical chemistry_Creatinine kinase): 1.25 mg/kg-day
- LOEL (F, Clinical chemistry_Direct bilirubin): 1.25 mg/kg-day
- LOEL (F, Clinical chemistry_Free thyroxine): 1.25 mg/kg-day
- LOEL (F, Clinical chemistry_Globulin): 0.312 mg/kg-day
- LOEL (F, Clinical chemistry_Indirect bilirubin): 2.5 mg/kg-day
- LOEL (F, Clinical chemistry_Sorbitol dehydrogenase): 2.5 mg/kg-day
- LOEL (F, Clinical chemistry_Testosterone): 0.312 mg/kg-day
- NOEL (F, Clinical chemistry_Thyroid stimulating hormone): 2.5 mg/kg-day
- LOEL (F, Clinical chemistry_Total bile acids): 1.25 mg/kg-day
- LOEL (F, Clinical chemistry_Total bilirubin): 1.25 mg/kg-day
- NOEL (F, Clinical chemistry_Total protein): 2.5 mg/kg-day
- NOEL (F, Clinical chemistry_Total thyroxine): 2.5 mg/kg-day
- LOEL (F, Clinical chemistry_Total triiodothyronine): 1.25 mg/kg-day
- NOEL (F, Clinical chemistry_Triglycerides): 2.5 mg/kg-day
- LOEL (F, Gene expression_Acox1): 0.156 mg/kg-day
- LOEL (F, Gene expression_Cyp2b1): 0.156 mg/kg-day
- LOEL (F, Gene expression_Cyp2b2): 0.156 mg/kg-day
- LOEL (F, Gene expression_Cyp4a1): 0.625 mg/kg-day
- LOEL (F, Hematology_Erythrocytes): 1.25 mg/kg-day
- LOEL (F, Hematology_Hematocrit): 1.25 mg/kg-day
- LOEL (F, Hematology_Hemoglobin): 1.25 mg/kg-day
- LOEL (F, Hematology_Mean corpuscular hemoglobin concentration): 2.5 mg/kg-day
- LOEL (F, Hematology_Mean corpuscular volume): 1.25 mg/kg-day
- LOEL (F, Hematology_Platelets): 2.5 mg/kg-day
- LOEL (F, Hematology_Reticulocytes): 1.25 mg/kg-day
- LOEL (F, Nonneoplastic effects_Bone marrow - Hypocellularity): 2.5 mg/kg-day
- NOEL (F, Nonneoplastic effects_Forestomach - Epithelium, hyperplasia): 2.5 mg/kg-day
- NOEL (F, Nonneoplastic effects_Forestomach - Inflammation, chronic active): 2.5 mg/kg-day
- NOEL (F, Nonneoplastic effects_Kidney - Nephropathy, chronic progressive): 2.5 mg/kg-day
- LOEL (F, Nonneoplastic effects_Liver - Hepatocyte, Necrosis): 2.5 mg/kg-day
- LOEL (F, Nonneoplastic effects_Liver - Hepatocyte, cytoplasmic alteration): 0.625 mg/kg-day
- LOEL (F, Nonneoplastic effects_Liver - Hepatocyte, hypertrophy): 1.25 mg/kg-day
- LOEL (F, Nonneoplastic effects_Liver - Hepatocyte, vacuolization cytoplasmic): 2.5 mg/kg-day
- NOEL (F, Nonneoplastic effects_Lymph nodes - Mandibular, atrophy): 2.5 mg/kg-day
- NOEL (F, Nonneoplastic effects_Lymph nodes - Mesenteric, atrophy): 2.5 mg/kg-day
- NOEL (F, Nonneoplastic effects_Nose - Olfactory epithelium, degeneration): 2.5 mg/kg-day
- NOEL (F, Nonneoplastic effects_Nose - Olfactory epithelium, hyperplasia): 2.5 mg/kg-day
- NOEL (F, Nonneoplastic effects_Nose - Olfactory epithelium, inflammation, suppurative): 2.5 mg/kg-day
- NOEL (F, Nonneoplastic effects_Nose - Respiratory epithelium, hyperplasia): 2.5 mg/kg-day
- NOEL (F, Nonneoplastic effects_Nose - Respiratory epithelium, inflammation, chronic active): 2.5 mg/kg-day
- NOEL (F, Nonneoplastic effects_Spleen - Atrophy): 2.5 mg/kg-day
- NOEL (F, Nonneoplastic effects_Spleen - Extramedullary hematopoiesis, increased): 2.5 mg/kg-day
- LOEL (F, Nonneoplastic effects_Thymus - Atrophy): 2.5 mg/kg-day
- NOEL (F, Nonneoplastic effects_Thymus - Lymphocyte, apoptosis): 2.5 mg/kg-day
- NOEL (F, Nonneoplastic effects_Thyroid gland - Follicular cell hypertrophy): 2.5 mg/kg-day
- LOEL (F, Organ weights_Liver - Absolute): 0.156 mg/kg-day
- LOEL (F, Organ weights_Liver - Relative): 0.156 mg/kg-day
- LOEL (F, Organ weights_R. adrenal gland - Absolute): 2.5 mg/kg-day
- NOEL (F, Organ weights_R. adrenal gland - Relative): 2.5 mg/kg-day
- LOEL (F, Organ weights_R. kidney - Absolute): 2.5 mg/kg-day
- LOEL (F, Organ weights_R. kidney - Relative): 0.625 mg/kg-day
- LOEL (F, Organ weights_Spleen - Absolute): 1.25 mg/kg-day
- LOEL (F, Organ weights_Spleen - Relative): 0.625 mg/kg-day
- LOEL (F, Organ weights_Thymus - Absolute): 2.5 mg/kg-day
- LOEL (F, Organ weights_Thymus - Relative): 2.5 mg/kg-day
- LOEL (F, Organ weights_Thyroid gland - Absolute): 0.312 mg/kg-day
- LOEL (F, Organ weights_Thyroid gland - Relative): 0.312 mg/kg-day
- LOEL (F, Reproductive toxicity_Altered estrous cyclicity): 1.25 mg/kg-day
- NOEL (F, Survival rates): 2.5 mg/kg-day
- LOEL (F, body weight): 1.25 mg/kg-day
- LOEL (M, Clinical chemistry_Alanine aminotransferase): 0.312 mg/kg-day
- LOEL (M, Clinical chemistry_Albumin): 1.25 mg/kg-day
- LOEL (M, Clinical chemistry_Albumin/globulin ratio): 0.156 mg/kg-day
- LOEL (M, Clinical chemistry_Alkaline phosphatase): 0.312 mg/kg-day
- LOEL (M, Clinical chemistry_Aspartate aminotransferase): 0.156 mg/kg-day
- LOEL (M, Clinical chemistry_Cholesterol): 0.156 mg/kg-day
- NOEL (M, Clinical chemistry_Creatinine kinase): 2.5 mg/kg-day
- LOEL (M, Clinical chemistry_Direct bilirubin): 1.25 mg/kg-day
- LOEL (M, Clinical chemistry_Free thyroxine): 0.312 mg/kg-day
- LOEL (M, Clinical chemistry_Globulin): 0.156 mg/kg-day
- LOEL (M, Clinical chemistry_Indirect bilirubin): 1.25 mg/kg-day
- NOEL (M, Clinical chemistry_Sorbitol dehydrogenase): 2.5 mg/kg-day
- LOEL (M, Clinical chemistry_Testosterone): 1.25 mg/kg-day
- NOEL (M, Clinical chemistry_Thyroid stimulating hormone): 2.5 mg/kg-day
- LOEL (M, Clinical chemistry_Total bile acids): 1.25 mg/kg-day
- LOEL (M, Clinical chemistry_Total bilirubin): 1.25 mg/kg-day
- LOEL (M, Clinical chemistry_Total protein): 0.156 mg/kg-day
- NOEL (M, Clinical chemistry_Total thyroxine): 2.5 mg/kg-day
- NOEL (M, Clinical chemistry_Total triiodothyronine): 2.5 mg/kg-day
- LOEL (M, Clinical chemistry_Triglycerides): 1.25 mg/kg-day
- LOEL (M, Gene expression_Acox1): 0.156 mg/kg-day
- LOEL (M, Gene expression_Acyl-CoA oxidase): 0.156 mg/kg-day
- LOEL (M, Gene expression_Cyp2b1): 0.156 mg/kg-day
- LOEL (M, Gene expression_Cyp2b2): 0.156 mg/kg-day
- LOEL (M, Gene expression_Cyp4a1): 0.156 mg/kg-day
- LOEL (M, Hematology_Erythrocytes): 2.5 mg/kg-day
- NOEL (M, Hematology_Hematocrit): 2.5 mg/kg-day
- NOEL (M, Hematology_Hemoglobin): 2.5 mg/kg-day
- LOEL (M, Hematology_Mean corpuscular hemoglobin concentration): 0.625 mg/kg-day
- LOEL (M, Hematology_Mean corpuscular volume): 1.25 mg/kg-day
- NOEL (M, Hematology_Platelets): 2.5 mg/kg-day
- LOEL (M, Hematology_Reticulocytes): 1.25 mg/kg-day
- LOEL (M, Nonneoplastic effects_Bone marrow - Hypocellularity): 2.5 mg/kg-day
- LOEL (M, Nonneoplastic effects_Epididymis - Duct, exfoliated germ cell): 2.5 mg/kg-day
- NOEL (M, Nonneoplastic effects_Epididymis - Epithelium, apoptosis): 2.5 mg/kg-day
- NOEL (M, Nonneoplastic effects_Epididymis - Hypospermia): 2.5 mg/kg-day
- NOEL (M, Nonneoplastic effects_Forestomach - Epithelium, hyperplasia): 2.5 mg/kg-day
- NOEL (M, Nonneoplastic effects_Forestomach - Inflammation, chronic active): 2.5 mg/kg-day
- NOEL (M, Nonneoplastic effects_Kidney - Nephropathy, chronic progressive): 2.5 mg/kg-day
- NOEL (M, Nonneoplastic effects_Liver - Hepatocyte, Necrosis): 2.5 mg/kg-day
- LOEL (M, Nonneoplastic effects_Liver - Hepatocyte, cytoplasmic alteration): 0.625 mg/kg-day
- LOEL (M, Nonneoplastic effects_Liver - Hepatocyte, hypertrophy): 1.25 mg/kg-day
- LOEL (M, Nonneoplastic effects_Liver - Hepatocyte, vacuolization cytoplasmic): 1.25 mg/kg-day
- NOEL (M, Nonneoplastic effects_Lymph nodes - Mandibular, atrophy): 2.5 mg/kg-day
- NOEL (M, Nonneoplastic effects_Lymph nodes - Mesenteric, atrophy): 2.5 mg/kg-day
- NOEL (M, Nonneoplastic effects_Nose - Olfactory epithelium, degeneration): 2.5 mg/kg-day
- NOEL (M, Nonneoplastic effects_Nose - Olfactory epithelium, hyperplasia): 2.5 mg/kg-day
- NOEL (M, Nonneoplastic effects_Nose - Olfactory epithelium, inflammation, suppurative): 2.5 mg/kg-day
- NOEL (M, Nonneoplastic effects_Nose - Respiratory epithelium, hyperplasia): 2.5 mg/kg-day
- NOEL (M, Nonneoplastic effects_Nose - Respiratory epithelium, inflammation, chronic active): 2.5 mg/kg-day
- NOEL (M, Nonneoplastic effects_Spleen - Atrophy): 2.5 mg/kg-day
- NOEL (M, Nonneoplastic effects_Spleen - Extramedullary hematopoiesis, increased): 2.5 mg/kg-day
- LOEL (M, Nonneoplastic effects_Testes - Germinal epithelium, degeneration): 2.5 mg/kg-day
- LOEL (M, Nonneoplastic effects_Testes - Interstitial cell, atrophy): 1.25 mg/kg-day
- LOEL (M, Nonneoplastic effects_Testes - Seminiferous tubule, spermatid retention): 2.5 mg/kg-day
- LOEL (M, Nonneoplastic effects_Thymus - Atrophy): 2.5 mg/kg-day
- LOEL (M, Nonneoplastic effects_Thymus - Lymphocyte, apoptosis): 1.25 mg/kg-day
- NOEL (M, Nonneoplastic effects_Thyroid gland - Follicular cell hypertrophy): 2.5 mg/kg-day
- LOEL (M, Organ weights_Liver - Absolute): 0.156 mg/kg-day
- LOEL (M, Organ weights_Liver - Relative): 0.156 mg/kg-day
- LOEL (M, Organ weights_R. adrenal gland - Absolute): 0.156 mg/kg-day
- LOEL (M, Organ weights_R. adrenal gland - Relative): 2.5 mg/kg-day
- LOEL (M, Organ weights_R. kidney - Absolute): 2.5 mg/kg-day
- LOEL (M, Organ weights_R. kidney - Relative): 0.625 mg/kg-day
- LOEL (M, Organ weights_R. testis - Absolute): 2.5 mg/kg-day
- LOEL (M, Organ weights_Spleen - Absolute): 1.25 mg/kg-day
- LOEL (M, Organ weights_Spleen - Relative): 2.5 mg/kg-day
- LOEL (M, Organ weights_Thymus - Absolute): 1.25 mg/kg-day
- LOEL (M, Organ weights_Thymus - Relative): 1.25 mg/kg-day
- NOEL (M, Organ weights_Thyroid gland - Absolute): 2.5 mg/kg-day
- LOEL (M, Organ weights_Thyroid gland - Relative): 1.25 mg/kg-day
- LOEL (M, Reproductive toxicity_Altered sperm parameters): 2.5 mg/kg-day
- NOEL (M, Survival rates): 2.5 mg/kg-day
- LOEL (M, body weight): 1.25 mg/kg-day
